# ChEMBL document CHEMBL1126540, “Synthesis and evaluation of 3-carboxymethyl steroids as inhibitors of human prostatic steroid 5-reductase” (Bioorg Med Chem Lett, 1993)
# Assay: Inhibition of Human prostatic Steroid 5-alpha-reductase
# Conditions: read-out: Ki app
row,Structure (SMILES),Ki [nM]
1,CC(C)N(C(=O)[C@H]1CC[C@H]2[C@@H]3CCc4cc(CCC(=O)O)ccc4[C@H]3CC[C@]12C)C(C)C,290
2,CC(C)N(C(=O)[C@H]1CC[C@H]2[C@@H]3CCc4cc(C(=O)C(=O)O)ccc4[C@H]3CC[C@]12C)C(C)C,150
3,CC(C)N(C(=O)[C@H]1CC[C@H]2[C@@H]3CCc4cc(CC(=O)O)ccc4[C@H]3CC[C@]12C)C(C)C,20
4,CC(C)N(C(=O)[C@H]1CCC2C3CC=C4C=C(C(=O)O)CC[C@]4(C)C3CC[C@@]21C)C(C)C (some centres undefined),7
5,CC(C)N(C(=O)[C@H]1CCC2C3CC[C@H]4C=C(CC(=O)O)CC[C@]4(C)C3CC[C@@]21C)C(C)C (some centres undefined),85
6,CC(C)N(C(=O)[C@H]1CCC2C3CC=C4C=C(CC(=O)O)CC[C@]4(C)C3CC[C@@]21C)C(C)C (some centres undefined),450
7,CC(C)N(C(=O)[C@H]1CCC2C3CCC4=C/C(=C/C(=O)O)CC[C@]4(C)C3CC[C@@]21C)C(C)C (some centres undefined),> 5000

# Further lines, results first:
row,Ki [nM],Structure (SMILES)
1,40,CC(C)N(C(=O)[C@H]1CC[C@H]2[C@@H]3CCc4cc(C(F)(F)C(=O)O)ccc4[C@H]3CC[C@]12C)C(C)C
2,> 5000,CC(C)N(C(=O)[C@H]1CC[C@H]2[C@@H]3CCc4cc(CS(=O)(=O)O)ccc4[C@H]3CC[C@]12C)C(C)C
3,740,CC(C)N(C(=O)[C@H]1CC[C@H]2[C@@H]3CCc4cc(CP(=O)(O)O)ccc4[C@H]3CC[C@]12C)C(C)C
4,40,CC(C)N(C(=O)[C@H]1CCC2C3CC[C@H]4CC(CC(=O)O)=CC[C@]4(C)C3CC[C@@]21C)C(C)C (some centres undefined)
5,> 5000,CC(C)N(C(=O)[C@H]1CC[C@H]2[C@@H]3CC[C@H]4C/C(=C/C(=O)O)CC[C@]4(C)[C@H]3CC[C@]12C)C(C)C
6,> 5000,CC(C)N(C(=O)[C@H]1CCC2C3CCC4=C/C(=C\C(=O)O)CC[C@]4(C)C3CC[C@@]21C)C(C)C (some centres undefined)
7,30,CC(C)N(C(=O)[C@H]1CCC2C3CC[C@H]4C=C(C(=O)O)CC[C@]4(C)C3CC[C@@]21C)C(C)C (some centres undefined)
